Laboratory results reported in patent US20250195521A1 (Revolution Medicines, Inc., priority 2020, published 2025).
Like-named read-outs stand apart in the source and are kept apart here.

Legend:
[1] = test system: K-Ras G12C (NCI-H358 cells); assay: Potency assay: pERK in NCI-H358 cells; type: cell-based, human; settings: Homo sapiens; NCI-H358 cells, 4 hours; read-out: pERK EC50 (H358 KRAS G12C)
In short: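 Cells plated the day before were exposed for 4 h at 37° C, 5% CO2 to a 10-point, 3-fold DMSO dilution series (10 mM top stock), in duplicate. Phospho-ERK was read by AlphaLISA SureFire Ultra or by In-Cell Western with DRAQ5 DNA stain, and IC50 came from a 4-parameter sigmoidal fit.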

[2] = test system: Capan-1 cells (K-Ras G12V); assay: CellTiter-Glo cell viability, Capan-1; type: cell-based, human; settings: Homo sapiens, CAPAN-1, 120 h, read-out: Capan-1 Cell Viability IC50
Description: Note—The following protocol describes a procedure for monitoring cell viability of K-Ras mutant cancer cell lines in response to a compound of the invention. Other RAS isoforms may be employed, though the number of cells to be seeded will vary based on cell line used.
Test compounds (132.5 nl) were directly dispensed into the assay plates containing cells. […] On day 5, assay plates and their contents were equilibrated to room temperature for approximately 30 minutes. […] Luminescence was measured using the PerkinElmer Enspire. Data were normalized by the following: (Sample signal/Avg. DMSO)*100. The data were fit using a four-parameter logistic fit.

KRAS G12S = KRAS G12S (Homo sapiens (Human), UniProt P01116+P62937, G12S); assay: Ras-Raf disruption/FRET/MOA assay (BRAF RBD, Cyclophilin A); type: biochemical
Description: (§1) Compound is present in plate wells as a 10-point 3-fold dilution series starting at a final concentration of 30 μM. After incubation at 25° C. for 3 hours, a mixture of Anti-His Eu—W1024 and anti-GST allophycocyanin is then added to assay sample wells at final concentrations of 10 nM and 50 nM, respectively, and the reaction incubated for an additional 1.5 hours. […] Compounds that facilitate disruption of a Ras: RAF complex are identified as those eliciting a decrease in the TR-FRET ratio relative to DMSO control wells.
(§2) Disruption of B-Raf Ras-Binding Domain (BRAF^RBD) Interaction with K-Ras by Compounds of the Invention (Also Called a FRET Assay or an MOA Assay)
(§3) Note—The following protocol describes a procedure for monitoring disruption of K-Ras G12C (GMP-PNP) binding to BRAF^RBD by a compound of the invention. This protocol may also be executed substituting other Ras proteins or nucleotides.
(§4) The purpose of this biochemical assay was to measure the ability of test compounds to facilitate ternary complex formation between a nucleotide-loaded K-Ras isoform and Cyclophilin A; the resulting ternary complex disrupts binding to a BRAF^RBD construct, inhibiting K-Ras signaling through a RAF effector. Data is reported as IC50 values.
(§5) In assay buffer containing 25 mM HEPES pH 7.3, 0.002% Tween20, 0.1% BSA, 100 mM NaCl and 5 mM MgCl2, tagless Cyclophilin A, His6-K-Ras-GMPPNP, and GST-BRAF^RBD were combined in a 384-well assay plate at final concentrations of 25 μM, 12.5 nM and 50 nM, respectively. Compound was present in plate wells as a 10-point 3-fold dilution series starting at a final concentration of 30 μM. After incubation at 25° C. for 3 hours, a mixture of Anti-His Eu—W1024 and anti-GST allophycocyanin was then added to assay sample wells at final concentrations of 10 nM and 50 nM, respectively, and the reaction incubated for an additional 1.5 hours. […] Compounds that facilitate disruption of a K-Ras: RAF complex were identified as those eliciting a decrease in the TR-FRET ratio relative to DMSO control wells.

KRAS G13D = KRAS G13D (Homo sapiens (Human), UniProt P01116+P62937, G13D); assay: as above; type: biochemical
Description: as §1, §2, §3, §4, §5

KRAS G12V = KRAS G12V (Homo sapiens (Human), UniProt P01116+P62937, G12V); assay: as above; type: biochemical
Description: as §1, §2, §3, §4, §5

KRAS G12D = KRAS G12D (Homo sapiens (Human), UniProt P01116+P62937, G12D); assay: as above; type: biochemical
Description: as §1, §2, §3, §4, §5

KRAS WT = KRAS WT (Homo sapiens (Human), UniProt P01116+P62937); assay: as above; type: biochemical
Description: as §1, §2, §3, §4, §5

NRAS G12C = NRAS G12C (Homo sapiens (Human), UniProt P01111+P62937, G12C); assay: as above; type: biochemical
Description: as §1, §2, §3, §4, §5

KRAS G13C = KRAS G13C (Homo sapiens (Human), UniProt P01116+P62937, G13C); assay: as above; type: biochemical
Description: as §1, §2, §3, §4, §5

KRAS G12C = KRAS G12C (Homo sapiens (Human), UniProt P01116+P62937, G12C); assay: as above; type: biochemical; settings: read-out: KRAS G12C FRET IC50
Description: as §1, §2, §3, §4, §5

NCI-H358 (K-Ras G12C) = assay: CellTiter-Glo cell viability assay, NCI-H358; type: cell-based, human; settings: Homo sapiens, NCI-H358, 120 h, 5-day treatment; read-out: H358 Cell Viability assay data (K-Ras G12C, IC50)
In short: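 Viability is measured as ATP-dependent luminescence (CellTiter-Glo) five days into compound treatment. Responses are normalized to vehicle (DMSO) wells and fitted by four-parameter logistic regression.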

[3] = read-out: KRAS G13D FRET data IC50
[4] = read-out: KRAS WT FRET data IC50

Chain of KRAS G12S (P01116 other isoform, or with tags, fused parts or gaps G12S): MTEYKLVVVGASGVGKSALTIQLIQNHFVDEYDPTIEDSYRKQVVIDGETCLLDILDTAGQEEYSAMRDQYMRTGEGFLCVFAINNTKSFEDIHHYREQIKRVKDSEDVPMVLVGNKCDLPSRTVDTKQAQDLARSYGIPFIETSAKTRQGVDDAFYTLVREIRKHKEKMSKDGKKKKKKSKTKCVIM
Chain of KRAS G12S (P62937 whole entry): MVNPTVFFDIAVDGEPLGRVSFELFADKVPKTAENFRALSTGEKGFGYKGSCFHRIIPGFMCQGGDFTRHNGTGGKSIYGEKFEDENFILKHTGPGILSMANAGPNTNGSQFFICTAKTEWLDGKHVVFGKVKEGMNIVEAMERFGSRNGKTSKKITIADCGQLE
Chain of KRAS G13D (P01116 other isoform, or with tags, fused parts or gaps G13D): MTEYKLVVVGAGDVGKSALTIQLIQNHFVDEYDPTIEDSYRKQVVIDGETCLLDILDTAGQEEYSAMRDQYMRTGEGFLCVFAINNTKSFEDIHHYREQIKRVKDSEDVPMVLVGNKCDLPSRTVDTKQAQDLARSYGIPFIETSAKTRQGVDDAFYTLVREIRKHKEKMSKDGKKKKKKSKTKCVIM
Chain of KRAS G13D (P62937 whole entry): as the sequence (P62937 whole entry) above
Chain of KRAS G12V (P01116 other isoform, or with tags, fused parts or gaps G12V): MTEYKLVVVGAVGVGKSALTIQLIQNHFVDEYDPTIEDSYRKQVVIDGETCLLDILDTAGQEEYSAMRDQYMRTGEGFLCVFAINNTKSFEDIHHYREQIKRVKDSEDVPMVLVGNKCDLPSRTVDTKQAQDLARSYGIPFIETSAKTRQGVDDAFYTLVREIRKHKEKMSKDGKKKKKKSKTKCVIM
Chain of KRAS G12V (P62937 whole entry): as the sequence (P62937 whole entry) above
Chain of KRAS WT (P01116 other isoform, or with tags, fused parts or gaps): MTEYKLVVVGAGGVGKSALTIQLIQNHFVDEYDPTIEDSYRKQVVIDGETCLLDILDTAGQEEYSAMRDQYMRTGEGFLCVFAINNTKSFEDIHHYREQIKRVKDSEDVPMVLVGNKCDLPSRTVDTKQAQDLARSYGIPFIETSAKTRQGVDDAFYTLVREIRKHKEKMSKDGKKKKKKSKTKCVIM
Chain of KRAS WT (P62937 whole entry): as the sequence (P62937 whole entry) above
Chain of KRAS G12D (P01116 other isoform, or with tags, fused parts or gaps G12D): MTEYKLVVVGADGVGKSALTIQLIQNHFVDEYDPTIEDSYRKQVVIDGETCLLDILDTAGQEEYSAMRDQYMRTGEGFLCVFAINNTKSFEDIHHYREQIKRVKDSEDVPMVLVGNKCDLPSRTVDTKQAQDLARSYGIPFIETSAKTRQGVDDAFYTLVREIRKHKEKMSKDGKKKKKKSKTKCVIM
Chain of KRAS G12D (P62937 whole entry): as the sequence (P62937 whole entry) above
Chain of KRAS G13C (P01116 other isoform, or with tags, fused parts or gaps G13C): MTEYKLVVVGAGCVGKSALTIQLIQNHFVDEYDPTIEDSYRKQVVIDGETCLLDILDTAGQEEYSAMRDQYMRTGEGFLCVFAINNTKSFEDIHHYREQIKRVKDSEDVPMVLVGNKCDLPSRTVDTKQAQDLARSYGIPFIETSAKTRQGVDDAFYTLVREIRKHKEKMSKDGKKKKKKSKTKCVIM
Chain of KRAS G13C (P62937 whole entry): as the sequence (P62937 whole entry) above
Chain of NRAS G12C (P01111 whole entry G12C): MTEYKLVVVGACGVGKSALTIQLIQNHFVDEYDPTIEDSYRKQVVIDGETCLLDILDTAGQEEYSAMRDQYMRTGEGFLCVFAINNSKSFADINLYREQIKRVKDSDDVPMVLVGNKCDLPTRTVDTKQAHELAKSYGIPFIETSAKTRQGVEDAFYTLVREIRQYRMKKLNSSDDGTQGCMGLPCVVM
Chain of NRAS G12C (P62937 whole entry): as the sequence (P62937 whole entry) above
Chain of KRAS G12C (P01116-2 other isoform, or with tags, fused parts or gaps G12C): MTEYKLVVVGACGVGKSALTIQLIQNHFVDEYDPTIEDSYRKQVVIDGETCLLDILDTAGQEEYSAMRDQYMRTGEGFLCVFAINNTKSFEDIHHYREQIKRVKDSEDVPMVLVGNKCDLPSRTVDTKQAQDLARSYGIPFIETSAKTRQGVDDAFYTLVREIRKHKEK
Chain of KRAS G12C (P62937 whole entry): as the sequence (P62937 whole entry) above

| EC50 [1] [nM] | IC50 (KRAS G13D; [3]) [nM] | IC50 (KRAS G12D; read-out: KRAS G12D FRET IC50) [nM] | IC50 (KRAS WT; [4]) [nM] | IC50 (NCI-H358 (K-Ras G12C)) [nM] | SMILES | IC50 ([2]; K-Ras G12V, 5-day treatment) [nM] | IC50 (KRAS G12S; read-out: KRAS G12S FRET IC50) [nM] | IC50 (KRAS G12V; read-out: KRAS G12V FRET IC50) [nM] | other results |
| --- | --- | --- | --- | --- | --- | --- | --- | --- | --- |
| – | – | – | – | – | CCn1c(-c2cccnc2[C@H](C)OC)c2c3cc(ccc31)-c1cc(O)cc(c1)C[C@H](NS(=O)(=O)c1ccc(OC)cc1OC)C(=O)N1CCC[C@H](N1)C(=O)OCC(C)(C)C2 [Compound A198] | – | – | – | IC50 [2]: > 10000 nM; IC50 (KRAS WT; KRAS WT FRET data IC50): > 10000 nM; IC50 (KRAS G12S; KRAS G12S FRET IC50): > 10000 nM; IC50 (KRAS G13D; KRAS G13D FRET data IC50): > 10000 nM; IC50 (KRAS G12V; KRAS G12V FRET IC50): > 10000 nM; IC50 (NRAS G12C; NRAS G12C FRET data IC50): > 10000 nM; IC50 (KRAS G13C; KRAS G13C FRET IC50): > 10000 nM; IC50 (KRAS G12D; KRAS G12D FRET IC50): > 10000 nM |
| – | 10 to 100 | 10 to 100 | 10 to 100 | – | CCn1c(-c2cccnc2[C@H](C)OC)c2c3cc(ccc31)-c1cc(O)cc(c1)C[C@H](NC(=O)[C@H](C(C)C)N(C)C(=O)[C@@H]1CN(C(=O)OC)C[C@@H]1C)C(=O)N1CCC[C@H](N1)C(=O)OCC(C)(C)C2 [Compound A325] | 10 to 100 | 10 to 100 | – | – |
| – | > 10000 | > 10000 | 1000 to 10000 | – | CCn1c(-c2cccnc2[C@H](C)OC)c2c3cc(ccc31)-c1cccc(c1)C[C@H](NC(=O)[C@H](C(C)C)N(C)C(=O)[C@H]1OCC[C@H]1c1ccccc1)C(=O)N1CCC[C@H](N1)C(=O)OCC(C)(C)C2 [Compound A429] | – | > 10000 | > 10000 | IC50 (KRAS G12C): 1000 to 10000 nM; IC50 (NRAS G12C; read-out: NRAS G12C FRET data IC50): 1000 to 10000 nM; IC50 (KRAS G13C; read-out: KRAS G13C FRET IC50): > 10000 nM |
| < 5000 | 10 to 100 | 10 to 100 | 10 to 100 | – | CCn1c(-c2cccnc2[C@H](C)OC)c2c3cc(ccc31)-c1cc(O)cc(c1)C[C@H](NC(=O)[C@H](C(C)C)N(C)C(=O)[C@@H]1CCN(C(=O)OC)[C@@H]1c1ccccc1)C(=O)N1CCC[C@H](N1)C(=O)OCC(C)(C)C2 [Compound A501] | 100 to 1000 | – | – | – |
| < 5000 | – | – | – | < 10 | CCn1c(-c2cccnc2[C@H](C)OC)c2c3cc(ccc31)-c1csc(n1)C[C@H](NC(=O)[C@H](C(C)C)N(C)C(=O)N1CC[C@@H]1CN(C)C)C(=O)N1CCC[C@H](N1)C(=O)OCC(C)(C)C2 [Compound A502] | 100 to 1000 | – | – | – |
| – | – | – | – | 100 to 1000 | CCn1c(-c2cccnc2[C@H](C)OC)c2c3cc(ccc31)-c1csc(n1)C[C@H](NC(=O)[C@H](C(C)C)N(C)C(=O)N1CCN3CCOC[C@H]3C1)C(=O)N1CCC[C@H](N1)C(=O)OCC(C)(C)C2 [Compound A548] | 10 to 100 | – | – | – |
| < 5000 | – | – | – | < 10 | CCn1c(-c2cccnc2[C@H](C)OC)c2c3cc(ccc31)-c1csc(n1)C[C@H](NC(=O)[C@H](C(C)C)N(C)C(=O)N1CC(N(C)S(C)(=O)=O)C1)C(=O)N1CCC[C@H](N1)C(=O)OCC(C)(C)C2 [Compound A550] | – | – | – | – |

| SMILES | EC50 [1] [nM] | IC50 (KRAS G13D; [3]) [nM] | IC50 (KRAS G12D; read-out: KRAS G12D FRET IC50) [nM] | IC50 (KRAS WT; [4]) [nM] | IC50 (NCI-H358 (K-Ras G12C)) [nM] | IC50 ([2]; K-Ras G12V, 5-day treatment) [nM] | IC50 (KRAS G12S; read-out: KRAS G12S FRET IC50) [nM] | IC50 (KRAS G12V; read-out: KRAS G12V FRET IC50) [nM] | other results |
| --- | --- | --- | --- | --- | --- | --- | --- | --- | --- |
| CCn1c(-c2cccnc2[C@H](C)OC)c2c3cc(ccc31)-c1cc(O)cc(c1)C[C@H](NS(=O)(=O)c1cn(C)c(C)n1)C(=O)N1CCC[C@H](N1)C(=O)OCC(C)(C)C2 [Compound A197] | < 5000 | > 10000 | > 10000 | – | – | > 10000 | > 10000 | > 10000 | – |
| CCn1c(-c2cccnc2[C@H](C)OC)c2c3cc(ccc31)-c1cc(O)cc(c1)C[C@H](NS(=O)(=O)CC1CC1)C(=O)N1CCC[C@H](N1)C(=O)OCC(C)(C)C2 [Compound A200] | – | > 10000 | > 10000 | – | – | – | > 10000 | > 10000 | IC50 [2]: 1000 to 10000 nM |
